The values below come from patent US20060148763A1, “Compounds and methods for regulating triglyceride levels” (priority 2005, published 2006).

The subject of one test is Non-HDL. As to the kind of experiment: Phase II cross-over study of P5P alone and with lisinopril in hypertensive type 2 diabetic patients: non-HDL. Format: in vivo, human. The protocol: (§1) Objective—A phase II clinical study was conducted to determine the effects of pyridoxal-5′-phosphate in combination with lisinopril on blood pressure and metabolic function in hypertensive patients with type 2 diabetes.
(§2) Summary of Study Design—The phase II study was a randomized, parallel group, cross-over, double-blinded to study medication, placebo-controlled comparison of P5P BID at total daily doses of 100, 300, or 1000 mg alone and in combination with 20 mg lisinopril given once daily (QD). In order to protect against antihypertensive and metabolic carry-over effects of lisinopril, all patients were randomized in 2 different treatment sequences. Patients randomized in the first treatment sequence receive an 8-week treatment with lisinopril 20 mg and P5P (or placebo) and then an 8-week treatment with P5P alone (or placebo). Patients randomized in the second treatment sequence receive an 8-week treatment with P5P alone and then an 8-week treatment with lisinopril 20 mg and P5P (or placebo). In each treatment sequence, all patients were randomized to P5P at the different prespecified dosages.
(§3) Mean trough sitting and standing BP were measured at each visit. Twenty-four hour ambulatory BP monitoring (ABPM) were performed at Visit 2 prior to randomization (end of washout period) and after week 8 (Visit 5) and week 16 (Visit 8) weeks of active therapy. Laboratory tests were performed at screening (Visit 1), prior to randomization (Visit 2), at week 2 (Visit 3a), week 8 (Visit 5), week 10 (Visit 6a), and at week 16 (Visit 8).
(§4) Treatment Plan—Two to Four-week Washout (Baseline) Period. Patients were instructed on the proper procedure for discontinuing their current antihypertensive medications (discontinuation or tapering) according to the manufacturer's label specifications. If a patient's current antihypertensive treatment needed to be tapered earlier, the Investigator complied with the corresponding timelines before randomization. With the exception of any tapering off of prior therapy, if any, no other anti-hypertensive medication was given to the patient during the washout period. Patients continued any existing diabetic treatment with sulfonylureas (tolbutamide, tolazamide, acetohexamide, chlorpropamide and second generation glyburide, glipizide, glimepiride), D-Phenylalanine derivatives, metformin, thiazolidinediones, acarbose, miglitol, and/or insulin throughout the study. Patients received placebo to be taken twice daily during the washout period. Standard diabetic medication was maintained throughout study. The duration of the washout period was two to four weeks, at the discretion of the Investigator taking into consideration whether the patient's blood pressure had stabilized following removal of any prior antihypertensive medication.
(§5) Active (Study) Medication Period: After the washout period, eligible patients were randomized to one of the 2 following sequences of treatment for 16 weeks.
(§6) Week 0 to 8: Treatment period (P5P alone (or placebo) or P5P (or placebo) and Lisinopril)
(§7) Week 8 to 16: Treatment period (P5P alone (or placebo) or P5P (or placebo) and Lisinopril)
(§8) Study Groups—The patients were randomized into one of […] groups:
(§9) Sequence 1 P5P 300 mg and then P5P 300 mg+Lisinopril 20 mg
(§10) Sequence 2 P5P 300 mg+Lisinopril 20 mg and then P5P 300 mg alone
(§11) All medications were taken at the same time each day during washout and treatment periods:
(§12) Other Efficacy Endpoints—Analytical efficacy measurements, including markers of metabolic function (insulinemia, fasting serum glucose, glycated hemoglobin, LDL, HDL, non-HDL and triglycerides), endothelial function (ICAM-1, VCAM-1, E-selectin and albuminuria), kidney function (creatinine, glomular filtration rate), CRP and homocysteine, were conducted on blood samples taken on Visits 2, 5 and 8. Samples were sent to a central laboratory for analysis.

Another test has as its system serum LDL. Put plainly: Phase II cross-over study of P5P alone and with lisinopril in hypertensive type 2 diabetic patients: LDL. Format: in vivo, human. As to conditions: for LDL change, 16 wk vs. baseline (b): LDL non-stratified data; for reduction in serum LDL levels: patients having elevated LDL levels (>2.59 mmol/L). As to the method:
as §1, §2, §3, §4, §5, §6, §7, §8, §9, §10, §11, §12

[1] abbreviates: P5P 300 mg, patients with Non HDL >3.34 mmol/L.
[2] abbreviates: P5P 300 mg, patients with LDL >2.59 mmol/L.

For `Cc1ncc(COP(=O)(O)O)c(C=O)c1O` [P5P, pyridoxal-5′-phosphate], the “Non-HDL change vs baseline (b)” value was −0.21 mmol/L (p=)b with Non-HDL (P5P 300 mg, non-stratified, calculated number, not measured in plasma); −0.26 mmol/L (p = 0.089)b in the test with Non-HDL (P5P 1000 mg, non-stratified, calculated number, not measured in plasma); −0.71 mmol/L (p = 0.007)b in the test on Non-HDL (P5P 1000 mg, patients with Non HDL >3.34 mmol/L). Moreover, the Non-HDL change with Non-HDL (setting [1]) is recorded as −0.68 mmol/L (p = 0.029). Further, the “Non-HDL reduction vs baseline (b)” value with Non-HDL (setting [1]) is “(15%)b”. Moreover, the “reduction in non-HDL compared to baseline” value with Non-HDL (P5P 300 mg, patients with non-HDL >3.34 mmol/L at baseline) worked out at 0.68 mmol/L. In addition, the “decrease in non-HDL vs. baseline” value with Non-HDL (P5P 1000 mg, patients with non-HDL. 3.34 mmol/L) is recorded as 0.71 mmol/L. For the same molecule, the “LDL change, 16 wk vs. baseline (b)” value in the test with serum LDL (P5P 300 mg) was −0.15 mmol/L (p = 0.194)b; in the test on serum LDL (P5P 1000 mg), −0.15 mmol/L (p = 0.197)b. Besides, the “reduction in serum LDL levels” value with serum LDL (P5P 300 mg) is on record as “about 0.41 mmol/L”; in the test on serum LDL (P5P 1000 mg), “about 0.53 mmol/L”. The LDL change in the test on serum LDL (setting [2]) was −0.41 mmol/L (p = 0.04); with serum LDL (P5P 1000 mg, patients with LDL >2.59 mmol/L), −0.53 mmol/L (p = 0.075). For the same molecule, the LDL reduction entry in the test with serum LDL (setting [2]) is on record as “(12% reduction)”. The “average reduction in serum LDL levels (placebo corrected)” value in the test with serum LDL (patients taking 300 mg or 1000 mg of P5P) is on record as 0.27 mmol/L.
